Experimental data taken from patent publication EP0449649A2, “Antineoplastic quinones and methods of using same” (priority 1990, dated 1991).
In brackets after ≈: the same amount, converted by molar mass. Read-outs that look alike come from different tables or passages of the source.

Key:
[1] = system: 110-fold doxorubicin-resistant ovarian cancer (2780/DOX); assay: in vitro screen against doxorubicin-resistant ovarian cancer; assay type: cell-based; conditions: read-out: IC₅₀
Text: (§1) (see: Salmon, S.E. et al, Cancer Treat Rep., 1981, 65, 102; Salmon, S.E. et al, N. Engl. J. Med., 1978, 298, 1231;and Albert, DS, Cancer Chemother Pharmacol, 1981, 6, 253). The protocol employed for MTT assays are reported. (see: Mossman T.J. Immunol Methods, 1983, 65, 55).
(§2) 6-(N-Aziridinyl)-7-methyl-2, 3-dihydro - 1H- pyrrolo [1, 2-a] benzimidazole-5, 8-dione-3-acetate (1c) was screened for in vitro activity against doxorubicin-sensitive ovarian cancer (2780/S) and 110-fold doxorubicin-resistant ovarian cancer (2780/DOX).
(§3) 6-(N-Aziridinyl)-7-methyl-2, 3-dihydro - 1H- pyrrolo [1, 2-ª] benzimidazole-5, 8-dione-3-carbamate (1d) was screened for in vitro activity against doxorubicin-sensitive (2780/S) and doxorubicin-resistant (2780/DOX) ovarian cancer.

[2] = system: doxorubicin-sensitive ovarian cancer (2780/S); assay: in vitro screen against doxorubicin-sensitive ovarian cancer; assay type: cell-based; conditions: read-out: IC₅₀
Text: as §1, §2, §3

[3] = system: cisplatin-sensitive (2008/S) ovarian cancers; assay: in vitro screen against cisplatin-sensitive ovarian cancer; assay type: cell-based; conditions: for IC₅₀: in vitro
Text: as §1
(§4) 6-(N-Aziridinyl)-7-methyl-2, 3-dihydro - 1H- pyrrolo [1, 2-ª] benzimidazole-5, 8-dione-3-acetate (1c) was screened for in vitro activities against cisplatin-sensitive (2008/S) and cisplatin-resistant (2008/R) ovarian cancers.
(§5) 6-(N-Aziridinyl)-7-methyl-2, 3-dihydro - 1H- pyrrolo [1, 2-a] benzimidazole-5, 8-dione-3-carbamate (1d) was screened for in vitro activity against cisplatin-sensitive (2008/S) and cisplatin-resistant (2008/R) ovarian cancers.

[4] = system: cisplatin-resistant (2008/R) ovarian cancers; assay: in vitro screen against cisplatin-resistant ovarian cancer; assay type: cell-based; conditions: for IC₅₀: in vitro
Text: as §1, §4, §5

[5] = system: WiDr human colon cancer; assay: in vitro screen against WiDr colon cancer; assay type: cell-based; conditions: read-out: IC₅₀
Text: as §1
6-(N-Aziridinyl)-7-methyl-2, 3-dihydro - 1H- pyrrolo [1, 2-ª] benzimidazole-5, 8-dione-3-acetate (1c) was screened for in vitro activity against WiDr human colon cancer.
6-(N-Aziridinyl)-7-methyl-2, 3-dihydro - 1H- pyrrolo [1, 2-ª] benzimidazole-5, 8-dione-3-carbamate (1d) was screened for in vitro activity against WiDr/S human colon cancer.

[6] = system: SW480 human colon cancer; assay: in vitro screen against SW480 colon cancer; assay type: cell-based
Text: as §1
6-(N-Aziridinyl)-7-methyl-2, 3-dihydro - 1H- pyrrolo [1, 2-ª] benzimidazole-5, 8-dione-3-acetate (1c) was screened for in vitro activity against SW480 human colon cancer.
6-(N-Aziridinyl)-7-methyl-2, 3-dihydro - 1H- pyrrolo [1, 2-ª] benzimidazole-5, 8-dione-3-carbamate (1d) was screened for in vitro activity against SW480 human colon cancer.

[7] = system: 8226/S human myeloma; assay: in vitro screen against 8226/S myeloma; assay type: cell-based; conditions: read-out: IC₅₀
Text: as §1
6-(N-Aziridinyl)-7-methyl-2, 3-dihydro - 1H- pyrrolo [1, 2-ª] benzimidazole-5, 8-dione-3-acetate (1c) was screened for in vitro activity against 8226/S human myeloma.
6-(N-Aziridinyl)-7-methyl-2, 3-dihydro - 1H- pyrrolo [1, 2-ª] benzimidazole-5, 8-dione-3-carbamate (1d) was screened for in vitro activity against 8226/S myeloma.

[8] = system: Fresh ovarian tumors; assay: clonogenic assay on fresh ovarian tumors from patients; assay type: cell-based, human
Experimental: as §1
Fresh ovarian tumors were collected from twelve (12) confirmed ovarian cancer patients. Azimitosene 1c was tested in vitro using the clonogenic assay described by Salmon et al, Salmon et al, and Albert et al (op cit). The IC₅₀ data (the drug concentration required to obtain 50% inhibition of tumor colony formation after 1 hour exposure to test compound) obtained from these assays are shown in Table 1.

SMILES	IC50 [1]	IC50 [2]	IC50 ([3]; Homo sapiens, read-out: IC₅₀)	IC50 ([4]; Homo sapiens, read-out: IC₅₀)	IC50 ([5]; WiDr)	IC50 ([6]; SW480, read-out: IC₅₀)	IC50 [7]	IC50 ([8]; 50% inhibition of tumor colony formation after 1 hour exposure, each value is the tumor of one patient (Patient No. 1-12))	IC50 ([8]; Homo sapiens, median over the fresh ovarian tumors of Table 1, read-out: median IC₅₀)	ovarian cancers that respond ([8]; share of the 12 fresh ovarian tumors of Table 1)	IC₅₀ [3]	IC₅₀ [4]	IC50 ([1]; 2780/DOX, in vitro)	IC50 ([2]; 2780/S, in vitro)	IC50 ([5]; WiDr (WiDr/S), in vitro)	IC50 ([6]; SW480, in vitro, read-out: IC₅₀)	IC50 ([7]; 8226/S, in vitro)
CC(=O)OC1CCn2c1nc1c2C(=O)C(C)=C(N2CC2)C1=O (stereo not drawn) [1c, 6-(N-aziridinyl)-7-methyl-2,3-dihydro-1H-pyrrolo [1,2-a]benzimidazole-5,8-dione-3-Acetate]	16 nM	0.6 nM	7 nM	7 nM	6 nM	9 nM	100 nM	unachievable	0.05 µg/mL (≈ 0.166 µM)	91%							
CC1=C(N2CC2)C(=O)c2nc3n(c2C1=O)CCC3OC(N)=O (stereo not drawn) [1d, 6-N-Aziridinyl-7-methyl-2,3-dihydro-1H-pyrrolo [1,2-a]benzimidazole-5,8-dione-3-Carbamate]	200 nM	100 nM			100 nM	19 nM	140 nM				not attainable	not attainable					
CO[C@@]12[C@H](COC(N)=O)C3=C(C(=O)C(C)=C(N)C3=O)N1C[C@@H]1N[C@@H]12 [MMC, mitomycin C, reference compound]											not attainable	not attainable	200 nM	100 nM	20 nM	7 nM	200 nM
